Laboratory results published in patent US10214542B2, “Modified macrocyclic compounds” (BAYER PHARMA AKTIENGESELLSCHAFT, priority 2015, dated 2019).

Key:
CDK9/CycT1 = target: T1, CDK9/CycT1 (Homo sapiens, UniProt P50750); test: CDK9/CycT1 high ATP kinase assay (TR-FRET, Method 1b); format: biochemical; details: 2 mM ATP; for IC50: Method 1b; for Selectivity high ATP CDK9 over high ATP CDK2: IC50 (high ATP CDK2)/IC50 (high ATP CDK9): Methods 1b and 2b
T1 construct: Recombinant full-length His-tagged human CDK9 and CycT1; His; purchased Invitrogen PV4131; host or cells: insect cells
Method: 1b. CDK9/CycT1 High ATP Kinase Assay
CDK9/CycT1-inhibitory activity of compounds of the present invention at a high ATP concentration after preincubation of enzyme and test compounds was quantified employing the CDK9/CycT1 TR-FRET assay as described in the following paragraphs.
Recombinant full-length His-tagged human CDK9 and CycT1, expressed in insect cells and purified by Ni-NTA affinity chromatography, were purchase from Invitrogen (Cat. No PV4131). As substrate for the kinase reaction biotinylated peptide biotin-Ttds-YISPLKSPYKISEG (C-terminus in amid form) was used which can be purchased e.g. from the company JERINI peptide technologies (Berlin, Germany).
For the assay 50 nl of a 100 fold concentrated solution of the test compound in DMSO was pipetted into a black low volume 384 well microtiter plate (Greiner Bio-One, Frickenhausen, Germany), 2 μl of a solution of CDK9/CycT1 in aqueous assay buffer [50 mM Tris/HCl pH 8.0, 10 mM MgCl2, 1.0 mM dithiothreitol, 0.1 mM sodium ortho-vanadate, 0.01% (v/v) Nonidet-P40 (Sigma)] were added and the mixture was incubated for 15 min at 22° C. to allow pre-binding of the test compounds to the enzyme before the start of the kinase reaction. […] The concentration of CDK9/CycT1 was adjusted depending of the activity of the enzyme lot and was chosen appropriate to have the assay in the linear range, typical concentrations were in the range of 0.5 μg/mL. The reaction was stopped by the addition of 5 μl of a solution of TR-FRET detection reagents (0.2 μM streptavidine-XL665 [Cisbio Bioassays, Codolet, France] and 1 nM anti-RB(pSer807/pSer811)-antibody from BD Pharmingen [#558389] and 1.2 nM LANCE EU-W1024 labeled anti-mouse IgG antibody [Perkin-Elmer, product no. AD0077]) in an aqueous EDTA-solution (100 mM EDTA, 0.2% (w/v) bovine serum albumin in 100 mM HEPES pH 7.5).
The resulting mixture was incubated 1 h at 22° C. to allow the formation of complex between the phosphorylated biotinylated peptide and the detection reagents. Subsequently the amount of phosphorylated substrate was evaluated by measurement of the resonance energy transfer from the Eu-chelate to the streptavidine-XL. Therefore, the fluorescence emissions at 620 nm and 665 nm after excitation at 350 nm was measured in a HTRF reader, e.g. a Rubystar (BMG Labtechnologies, Offenburg, Germany) or a Viewlux (Perkin-Elmer). The ratio of the emissions at 665 nm and at […] was taken as the measure for the amount of phosphorylated substrate. The data were normalised (enzyme reaction without inhibitor=0% inhibition, all other assay components but no enzym=100% inhibition).

MOLM-13 cells = test: Proliferation assay, Cell Titre-Glo viability (Method 3); format: cell-based; details: Homo sapiens; MOLM-13, 72-hour exposure; read-out: Inhibition of MOLM-13 cell proliferation IC50
Method: A2780 human ovarian carcinoma cells (ECACC #93112519) and non-adherent MOLM-13 human acute myeloid leukemia cells (DSMZ ACC 554) were seeded at a density of 3,000 cell/well (A2780) or 5,000 cells/well (MOLM-13) in a 96-well multititer plate in 150 μL of growth medium supplemented 10% fetal calf serum. After 24 hours, cell viability of one plate (zero-point plate) was determined with the Cell Titre-Glo Luminescent Cell Viability Assay (Promega), while the medium of the other plates was supplemented with the test substances in various concentrations (0 μM, as well as in the range of 0.0001-10 μM; the final concentration of the solvent dimethyl sulfoxide was adjusted to 0.1%) using a Hewlett-Packard HP D300 Digital Dispenser. Cell viability was assessed after 72-hour exposure with the Cell
Titre-Glo Luminescent Cell Viability Assay (Promega). IC50 values (inhibitory concentration at 50% of maximal effect) were determined by means of a 4 parameter fit on measurement data which were normalized to vehicle (DMSO) treated cells (=100%) and measurement readings taken immediately before compound exposure (=0%).

T1 sequence (P50750 whole entry): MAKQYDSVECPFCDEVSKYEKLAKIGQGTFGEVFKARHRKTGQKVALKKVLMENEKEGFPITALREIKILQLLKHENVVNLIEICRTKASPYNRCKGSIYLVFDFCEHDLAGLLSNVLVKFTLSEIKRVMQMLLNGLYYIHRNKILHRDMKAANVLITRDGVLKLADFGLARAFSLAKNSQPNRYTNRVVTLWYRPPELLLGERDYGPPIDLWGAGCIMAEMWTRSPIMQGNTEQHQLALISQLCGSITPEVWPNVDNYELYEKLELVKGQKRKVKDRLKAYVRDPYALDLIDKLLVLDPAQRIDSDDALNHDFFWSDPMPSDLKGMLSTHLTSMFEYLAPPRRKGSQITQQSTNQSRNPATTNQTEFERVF
T1 sequence (O60563 whole entry partner): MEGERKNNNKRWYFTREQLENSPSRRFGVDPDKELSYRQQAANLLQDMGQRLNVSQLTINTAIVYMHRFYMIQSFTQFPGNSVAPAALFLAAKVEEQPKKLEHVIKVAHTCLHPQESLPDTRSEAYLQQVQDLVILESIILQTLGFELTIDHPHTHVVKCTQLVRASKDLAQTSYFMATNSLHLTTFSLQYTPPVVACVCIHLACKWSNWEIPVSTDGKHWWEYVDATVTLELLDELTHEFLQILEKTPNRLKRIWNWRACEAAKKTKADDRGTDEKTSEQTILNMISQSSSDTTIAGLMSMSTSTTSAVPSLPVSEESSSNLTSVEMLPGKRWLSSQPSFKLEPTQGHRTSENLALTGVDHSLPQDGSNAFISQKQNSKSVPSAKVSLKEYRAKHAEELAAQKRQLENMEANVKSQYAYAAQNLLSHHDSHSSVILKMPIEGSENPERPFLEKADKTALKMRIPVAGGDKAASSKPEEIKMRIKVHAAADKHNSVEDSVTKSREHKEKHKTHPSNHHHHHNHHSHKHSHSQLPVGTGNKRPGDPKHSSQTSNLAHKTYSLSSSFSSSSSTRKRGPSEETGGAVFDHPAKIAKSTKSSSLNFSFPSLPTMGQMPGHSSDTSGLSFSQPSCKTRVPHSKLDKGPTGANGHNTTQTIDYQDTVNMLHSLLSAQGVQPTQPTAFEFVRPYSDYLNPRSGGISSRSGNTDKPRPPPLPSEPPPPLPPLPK

IC50 (CDK9/CycT1) [nM]	Selectivity high ATP CDK9 over high ATP CDK2: IC50 (high ATP CDK2)/IC50 (high ATP CDK9) (CDK9/CycT1)	IC50 (MOLM-13 cells) [nM]	Structure (SMILES)
2.6	31	8.2	CN1CCCCOc2cc(F)ccc2-c2cc(ncc2F)Nc2cc(CS(C)(=N)=O)cc1n2 (racemic) [Example 11, (rac)-16,20-difluoro-6-methyl-9-[(S-methylsulfonimidoyl)methyl]-3,4,5,6-tetrahydro-2H-7,11-(azeno)-17,13-(metheno)-1,6,12,14-benzoxatriazacyclononadecine]
3	426	14	CC(C)(C)OC(=O)N=S(C)(=O)Cc1cc2cc(c1)OCCCNc1cc(F)ccc1-c1nc(ncc1F)N2 (racemic) [Example 13, (rac)-tert-butyl[{[15,19-difluoro-1,2,3,4-tetrahydro-16,12-(azeno)-6,10-(metheno)-5,1,11,13-benzoxatriazacyclooctadecin-8(11H)-yl]methyl}(methyl)oxido-λ^6-sulfanylidene]carbamate]
1	94	3.1	CS(=N)(=O)Cc1cc2cc(c1)OCCCNc1cc(F)ccc1-c1nc(ncc1F)N2 (racemic) [Example 14, rac-15,19-difluoro-8-[(S-methylsulfonimidoyl)methyl]-1,2,3,4-tetrahydro-16,12-(azeno)-6,10-(metheno)-5,1,11,13-benzoxatriazacyclooctadecine]
4.7	713	18	CC(C)(C)OC(=O)N=S(C)(=O)Cc1cc2cc(c1)OCCCCNc1cc(F)ccc1-c1nc(ncc1F)N2 (racemic) [Example 15, (rac)-tert-butyl[{[16,20-difluoro-2,3,4,5-tetrahydro-1H,12H-13,17-(azeno)-11,7-(metheno)-6,1,12,14-benzoxatriazacyclononadecin-9-yl]methyl}(methyl)oxido-λ^6-sulfanylidene]carbamate]
1.5	151	4.1	CS(=N)(=O)Cc1cc2cc(c1)OCCCCNc1cc(F)ccc1-c1nc(ncc1F)N2 (racemic) [Example 16, (rac)-16,20-difluoro-9-[(S-methylsulfonimidoyl)methyl]-2,3,4,5-tetrahydro-1H-17,13-(azeno)-7,11-(metheno)-6,1,12,14-benzoxatriazacyclononadecine]
2.2	283	13	CN1CCCCNc2cc(F)ccc2-c2nc(ncc2F)Nc2cc(CS(C)(=N)=O)cc1c2.O=CO (racemic) [Example 17, (rac)-16,20-difluoro-6-methyl-9-[(S-methylsulfonimidoyl)methyl]-1,2,3,4,5,6-hexahydro-12H-17,13-(azeno)-11,7-(metheno)-1,6,12,14-benzotetraazacyclononadecine; salt with formic acid]
44	>454		CC(C)(C)OC(=O)N=S(C)(=O)Cc1cc2cc(c1)Nc1ncc(F)c(n1)-c1ccc(F)cc1OCCCCN2 (racemic) [Example 24, (rac)-tert-butyl[{[16,20-difluoro-3,4,5,6-tetrahydro-2H,12H-13,17-(azeno)-11,7-(metheno)-1,6,12,14-benzoxatriazacyclononadecin-9-yl]methyl}(methyl)oxido-λ^6-sulfanylidene]carbamate]
246	>81.3		CSCc1cc2nc(c1)OCCCCCc1cc(F)ccc1-c1cc(ncc1F)N2 [Example 18, 2,19-difluoro-9-[(methylsulfanyl)methyl]-14,15,16,17-tetrahydro-6H,13H-7,11-(azeno)-5,1-(metheno)-12,4,6-benzoxadiazacyclononadecine]

The next lines start with the compound.

Structure (SMILES)	IC50 (CDK9/CycT1) [nM]	Selectivity high ATP CDK9 over high ATP CDK2: IC50 (high ATP CDK2)/IC50 (high ATP CDK9) (CDK9/CycT1)	IC50 (MOLM-13 cells) [nM]
CS(=O)(Cc1cc2nc(c1)Nc1cc(c(F)cn1)-c1ccc(F)cc1OCCCCN2)=NC(=O)OCc1ccccc1 (racemic) [Example 2, (rac)-Benzyl[{[16,20-difluoro-3,4,5,6-tetrahydro-2H,12H-11,7-(azeno)-13,17-(metheno)-1,6,12,14-benzoxatriazacyclononadecin-9-yl]methyl}(methyl)oxido-λ^6-sulfanylidene]carbamate]	12.7	634	3
CS(=N)(=O)Cc1cc2nc(c1)Nc1cc(c(F)cn1)-c1ccc(F)cc1OCCCCN2 (racemic) [Example 3, (rac)-16,20-Difluoro-9-[(S-methylsulfonimidoyl)methyl]-3,4,5,6-tetrahydro-2H,12H-11,7-(azeno)-13,17-(metheno)-1,6,12,14-benzoxatriazacyclononadecine]	3.9	167	3.4
C[S+]([O-])Cc1cc2nc(c1)OCCCCc1cc(F)ccc1-c1cc(ncc1F)N2 (racemic) [Example 5, (rac)-2,18-Difluoro-9-[(methylsulfinyl)methyl]-13,14,15,16-tetrahydro-6H-7,11-(azeno)-5,1-(metheno)-12,4,6-benzoxadiazacyclooctadecine]	6	1375	24
CC(C)(C)OC(=O)N=S(C)(=O)Cc1cc2nc(c1)Nc1cc(c(F)cn1)-c1ccc(F)cc1OCCCN2 (racemic) [Example 7, (rac)-tert-butyl[{[15,19-difluoro-2,3,4,5-tetrahydro-11H-10,6-(azeno)-16,12-(metheno)-1,5,11,13-benzoxatriazacyclooctadecin-8-yl]methyl}(methyl)oxido-λ^6-sulfanylidene]carbamate]	1.9	32.1	6.8
CS(=N)(=O)Cc1cc2nc(c1)Nc1cc(c(F)cn1)-c1ccc(F)cc1OCCCN2 (racemic) [Example 8, (rac)-15,19-difluoro-8-[(S-methylsulfonimidoyl)methyl]-2,3,4,5-tetrahydro-11H-10,6-(azeno)-16,12-(metheno)-1,5,11,13-benzoxatriazacyclooctadecine]	0.7	41.4	2.2
CC(C)(C)OC(=O)N=S(C)(=O)Cc1cc2nc(c1)Nc1cc(c(F)cn1)-c1ccc(F)cc1OCCCCCN2 (racemic) [Example 9, (rac)-tert-butyl[{[17,21-difluoro-2,3,4,5,6,7-hexahydro-13H-12,8-(azeno)-14,18-(metheno)-1,7,13,15-benzoxatriazacycloicosin-10-yl]methyl}(methyl)oxido-λ^6-sulfanylidene]carbamate]	6.8	37.2	19
CS(=N)(=O)Cc1cc2nc(c1)Nc1cc(c(F)cn1)-c1ccc(F)cc1OCCCCCN2 (racemic) [Example 10, (rac)-17,21-difluoro-10-[(S-methylsulfonimidoyl)methyl]-2,3,4,5,6,7-hexahydro-13H-12,8-(azeno)-14,18-(metheno)-1,7,13,15-benzoxatriazacycloicosine]	1	102	4.4
